Experimental findings from patent US20220233468A1 (priority 2021, published 2022) are described below.

Like-named read-outs stand apart in the source and are kept apart here.

Assay in all cases: microbe, parasite or virus in culture
Holding throughout (assay type): cell-based

For test [1], the system named is pseudovirions harboring S protein from SARS-CoV-2 Gamma variant (P.1). Conditions: Severe acute respiratory syndrome coronavirus 2.
Test [2] deals with pseudovirions harboring S protein from SARS-CoV-2 Alpha variant (B.1.1.7). Conditions: for EC50: Severe acute respiratory syndrome coronavirus 2.
For test [3], the system named is pseudovirions harboring S protein from SARS-CoV-2 Delta variant (B.1.617.2). Conditions: for EC50: Severe acute respiratory syndrome coronavirus 2.
The test system of test [4] is pseudovirions harboring S protein from SARS-CoV-2 Beta variant (B.1.351). As to conditions: for EC50: Severe acute respiratory syndrome coronavirus 2.
Where [5] appears, read: read-out: EC50, inhibition of cellular entry of pseudovirions, Gamma variant.

As for `COc1ccc(/C=C/C(=O)C(F)(CC2CCC2)C(=O)/C=C/c2ccc(OC)c(OC)c2)cc1OC` [Compound A, 4-fluoro-4-cyclobutylmethyl-1,7-bis(3,4-dimethoxyphenyl)hepta-1,6-diene-3,5-dione], in test [1] (setting [5]), the EC50 was ~4 µM. For the same compound, the “inhibition of cellular entry of pseudovirions with Spike variants (in words), Alpha variant” value in test [2] is “showed inhibition of cellular entry”. Besides, the “inhibition of cellular entry of pseudovirions with Spike variants (in words), Delta variant” value in test [3] is listed as “showed inhibition of cellular entry”. Besides, the “inhibition of cellular entry of pseudovirions with Spike variants (in words), Beta variant” value in test [4] was “showed inhibition of cellular entry”.

`COc1ccc(/C=C/C(=O)C(CC2CCC2)C(=O)/C=C/c2ccc(OC)c(OC)c2)cc1OC` [Compound B, 4-(cyclobutylmethyl)-1,7-bis(3,4-dimethoxyphenyl)hepta-1,6-diene-3,5-dione]: the EC50 in test [1] (setting [5]) is ~4.7 µM; in test [1] (read-out: EC50, prophylactic inhibition of cellular entry of pseudovirions, Gamma variant), ~3.6 µM; in test [2] (read-out: EC50, inhibition of cellular entry of pseudovirions, Alpha variant), ~4.4 µM; in test [2] (read-out: EC50, prophylactic inhibition of cellular entry of pseudovirions, Alpha variant) it was ~3.2 µM; in test [3] (read-out: EC50, inhibition of cellular entry of pseudovirions, Delta variant) it was ~4.9 µM; in test [3] (read-out: EC50, prophylactic inhibition of cellular entry of pseudovirions, Delta variant) it was ~3.8 µM. For the same compound, the EC50 in test [4] (read-out: EC50, inhibition of cellular entry of pseudovirions, Beta variant) was ~4.7 µM; in test [4] (read-out: EC50, prophylactic inhibition of cellular entry of pseudovirions, Beta variant), ~3.3 µM.
